Laboratory results: KR20190126525A, “신규 소듐채널 저해 화합물, 이의 제조방법, 및 이를 포함하는 소듐채널 관련 질환의 예방 또는 치료용 약학적 조성물” (이화여자대학교 산학협력단, priority 2018, dated 2019)

Each compound was assayed against T1, Nav1.7 (Homo sapiens, UniProt Q15858) (assay: VIPR (voltage/ion probe reader) membrane potential assay, Nav1.7). Conditions: HEK293; 10uM; HEK cells expressing hNav1.7; veratridine.
T1 construct: host or cells: HEK cells
Format: cell-based

T1 sequence (Q15858 whole entry): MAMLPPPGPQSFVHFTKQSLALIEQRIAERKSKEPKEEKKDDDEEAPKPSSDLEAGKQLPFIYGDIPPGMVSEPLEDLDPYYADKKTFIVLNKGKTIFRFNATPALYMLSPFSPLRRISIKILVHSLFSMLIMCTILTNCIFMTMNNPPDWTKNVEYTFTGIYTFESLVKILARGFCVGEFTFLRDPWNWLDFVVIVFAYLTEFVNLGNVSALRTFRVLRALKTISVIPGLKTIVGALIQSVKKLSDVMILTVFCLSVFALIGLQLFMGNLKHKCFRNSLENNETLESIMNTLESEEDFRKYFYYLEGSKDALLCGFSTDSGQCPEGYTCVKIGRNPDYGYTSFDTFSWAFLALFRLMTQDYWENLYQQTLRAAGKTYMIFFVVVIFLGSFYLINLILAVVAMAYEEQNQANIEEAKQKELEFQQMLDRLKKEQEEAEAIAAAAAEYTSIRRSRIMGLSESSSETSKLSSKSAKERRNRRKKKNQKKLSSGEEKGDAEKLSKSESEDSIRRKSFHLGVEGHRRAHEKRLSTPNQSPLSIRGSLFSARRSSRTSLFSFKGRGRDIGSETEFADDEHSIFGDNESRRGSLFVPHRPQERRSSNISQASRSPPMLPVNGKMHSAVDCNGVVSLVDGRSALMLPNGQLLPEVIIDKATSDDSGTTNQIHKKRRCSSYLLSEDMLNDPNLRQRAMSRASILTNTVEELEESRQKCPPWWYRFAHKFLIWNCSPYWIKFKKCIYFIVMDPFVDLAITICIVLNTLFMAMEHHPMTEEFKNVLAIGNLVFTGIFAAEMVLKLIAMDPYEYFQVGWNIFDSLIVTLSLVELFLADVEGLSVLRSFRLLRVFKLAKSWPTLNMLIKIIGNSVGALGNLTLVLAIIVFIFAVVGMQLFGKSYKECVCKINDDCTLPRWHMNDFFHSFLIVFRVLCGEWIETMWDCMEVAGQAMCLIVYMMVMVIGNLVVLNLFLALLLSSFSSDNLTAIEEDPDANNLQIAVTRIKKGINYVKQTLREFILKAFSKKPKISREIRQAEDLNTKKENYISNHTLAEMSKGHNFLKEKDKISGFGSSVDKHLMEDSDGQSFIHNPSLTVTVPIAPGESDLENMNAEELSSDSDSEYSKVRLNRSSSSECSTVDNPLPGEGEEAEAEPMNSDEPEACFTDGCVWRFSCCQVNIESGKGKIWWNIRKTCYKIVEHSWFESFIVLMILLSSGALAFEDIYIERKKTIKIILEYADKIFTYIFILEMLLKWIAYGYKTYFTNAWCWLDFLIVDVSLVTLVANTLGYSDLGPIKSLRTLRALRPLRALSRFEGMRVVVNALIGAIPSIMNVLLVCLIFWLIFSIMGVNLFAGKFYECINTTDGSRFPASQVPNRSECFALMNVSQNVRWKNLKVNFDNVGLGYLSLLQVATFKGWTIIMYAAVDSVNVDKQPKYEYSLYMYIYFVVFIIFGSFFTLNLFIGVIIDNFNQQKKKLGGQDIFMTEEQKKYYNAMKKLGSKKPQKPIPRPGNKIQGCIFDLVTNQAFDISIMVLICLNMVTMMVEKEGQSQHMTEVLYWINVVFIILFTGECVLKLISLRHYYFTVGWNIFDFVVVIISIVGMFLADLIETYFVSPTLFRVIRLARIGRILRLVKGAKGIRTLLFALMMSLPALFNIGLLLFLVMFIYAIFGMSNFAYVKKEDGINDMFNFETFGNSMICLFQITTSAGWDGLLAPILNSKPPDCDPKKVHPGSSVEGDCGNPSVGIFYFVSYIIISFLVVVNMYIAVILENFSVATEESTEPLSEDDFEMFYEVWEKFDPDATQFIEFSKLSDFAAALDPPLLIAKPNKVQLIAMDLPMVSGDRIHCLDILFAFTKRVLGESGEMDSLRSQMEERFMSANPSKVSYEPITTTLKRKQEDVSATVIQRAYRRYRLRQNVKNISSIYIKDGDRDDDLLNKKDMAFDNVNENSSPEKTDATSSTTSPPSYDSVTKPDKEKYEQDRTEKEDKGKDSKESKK

Point of comparison: CC(CCc1ccccc1)NCc1ccc(N2CCOCC2)cc1 (stereo not shown) [실시예 14, N-(4-모폴리노벤질)-4-페닐부탄-2-아민], inhibition at 10 µM 87.1%. Against it:
- CC(CCc1ccccc1)NC(=O)c1cccc2ccccc12 (stereo not shown) [실시예 27, N-(4-페닐부탄-2-일)-1-나프타미드] — lower, 4.12%
- COc1cc(CNCc2c[nH]c3cc(F)ccc23)cc(OC)c1OC [실시예 35, 1-(6-플루오로-1H-인돌-3-일)-N-(3,4,5-트리메톡시벤질)메탄아민] — lower, 38.2%
- NC(=O)[C@@H](NCc1ccc(Oc2ccc(Cl)cc2)cc1)c1ccccc1 [실시예 11, (S)-2-(4-(4-클로로페녹시)벤질아미노)-2-페닐아세트아미드] — lower, 3.68%
- NC(=O)[C@@H](NCc1ccc(Oc2ccc(F)cc2)cc1)c1ccccc1 [실시예 10, (S)-2-(4-(4-플루오로페녹시)벤질아미노)-2-페닐아세트아미드] — lower, 31.3%
- COc1cc(CNCc2ccc(Oc3ccc(Cl)cc3)cc2)cc(OC)c1OC [실시예 32, N-(4-(4-클로로페녹시)벤질)-1-(3,4,5-트리메톡시페닐)메탄아민] — lower, 15.2%
- COc1cc(CNCc2c[nH]c3ccc(Br)cc23)cc(OC)c1OC [실시예 34, 1-(5-브로모-1H-인돌-3-일)-N-(3,4,5-트리메톡시벤질)메탄아민] — lower, 27%
- CC(CCc1ccccc1)NCc1ccc(Oc2ccc(F)cc2)cc1 (stereo not shown) [실시예 23, N-(4-(4-플루오로페녹시)벤질)-4-페닐부탄-2-아민] — lower, 33.9%
- Cc1onc(-c2ccc(Cl)cc2)c1C(=O)NC(C)CCc1ccccc1 (stereo not shown) [실시예 28, 3-(4-클로로페닐)-5-메틸-N-(4-페닐부탄-2-일)이속사졸-4-카복스아미드] — lower, 24.4%
- COc1ccc2[nH]cc(CNCc3cc(OC)c(OC)c(OC)c3)c2c1 [실시예 36, 1-(5-메톡시-1H-인돌-3-일)-N-(3,4,5-트리메톡시벤질)메탄아민] — lower, 23.7%
- COc1cc(CNCc2c(-c3ccccc3)[nH]c3ccccc23)cc(OC)c1OC [실시예 30, 1-(2-페닐-1H-인돌-3-일)-N-(3,4,5-트리메톡시페닐)메탄아민] — lower, 12.1%
- CC(CCc1ccccc1)NCc1ccc(-c2cccc(C(F)(F)F)c2)o1 (stereo not shown) [실시예 12, 4-페닐-N-((5-(3-(트리플루오로메틸)페닐)퓨란-2-일)메틸)부탄-2-아민] — higher, 104%
- CC(CCc1ccccc1)NCc1ccc(-c2ccc(Cl)cc2)o1 (stereo not shown) [실시예 15, N-((5-(4-클로로페닐)퓨란-2-일)메틸)-4-페닐부탄-2-아민] — lower, 34.6%
- COc1ccc2[nH]cc(CN[C@@H](C)C(N)=O)c2c1 [실시예 5, (S)-2-((5-메톡시-1H-인돌-3-일)메틸아미노)프로판아미드] — lower, 4.3%
- CC(CCc1ccccc1)NCc1ccc(Oc2ccc(C#N)cc2)cc1 (stereo not shown) [실시예 20, 4-(4-((4-페닐부탄-2-일)아미노메틸)페녹시)벤조나이트릴] — higher, 106%
- CC(CCc1ccccc1)NCc1ccc(-c2cncnc2)cc1 (stereo not shown) [실시예 19, 4-페닐-N-(4-(피리미딘-5-일)벤질)부탄-2-아민] — lower, 29.8%
- COc1ccc(-c2ccc(CNC(C)CCc3ccccc3)o2)cc1Cl (stereo not shown) [실시예 18, N-((5-(3-클로로-4-메톡시페닐)퓨란-2-일)메틸)-4-페닐부탄-2-아민] — lower, 65.9%
- CC(CCc1ccccc1)NC(=O)c1ccc(-c2ccccc2)cc1 (stereo not shown) [실시예 25, N-(4-페닐부탄-2-일)-[1,1'-바이페닐]-4-카복스아미드] — lower, 84%
- COc1cc(CNCc2ccc(Oc3ccc(F)cc3)cc2)cc(OC)c1OC [실시예 31, N-(4-(4-플루오로페녹시)벤질)-1-(3,4,5-트리메톡시페닐)메탄아민] — lower, 16.6%
- C[C@H](NCc1c[nH]c2ccc(Br)cc12)C(N)=O [실시예 2, (S)-2-((5-브로모-1H-인돌-3-일)메틸아미노)프로판아미드] — lower, 59.9%
- CC(CCc1ccccc1)NCc1ccc(N2CCN(C)CC2)cc1 (stereo not shown) [실시예 13, N-(4-(4-메틸피페라진-1-일)벤질)-4-페닐부탄-2-아민] — lower, 66.4%
- C[C@H](NCc1c[nH]c2ccc(OCc3ccccc3)cc12)C(N)=O [실시예 1, (S)-2-((5-(벤질옥시)-1H-인돌-3-일)메틸아미노)프로판아미드] — lower, 5.13%
- CC(CCc1ccccc1)NCc1ccc(Oc2ccc(Cl)cc2)cc1 (stereo not shown) [실시예 24, N-(4-(4-클로로페녹시)벤질)-4-페닐부탄-2-아민] — lower, 10.2%
- COc1cc(CNC(=O)c2ccc3ccccc3n2)cc(OC)c1OC [실시예 41, N-(3,4,5-트리메톡시벤질)퀴놀린-2-카복스아미드] — lower, 71.7%
- COc1cc(CNC(=O)c2ccc(-c3ccccc3)cc2)cc(OC)c1OC [실시예 38, N-(3,4,5-트리메톡시벤질)-[1,1'-바이페닐]-4-카복스아미드] — lower, 6.9%
- CC(CCc1ccccc1)NCc1c[nH]c2ccccc12 (stereo not shown) [실시예 22, N-((1H-인돌-3-일)메틸)-4-페닐부탄-2-아민] — lower, 14.2%
- CC(CCc1ccccc1)NCc1c[nH]c2ccc(Cl)cc12 (stereo not shown) [실시예 21, N-((5-클로로-1H-인돌-3-일)메틸)-4-페닐부탄-2-아민] — lower, 38.5%
- COc1cc(CNCc2c[nH]c3c([N+](=O)[O-])cccc23)cc(OC)c1OC [실시예 37, 1-(7-니트로-1H-인돌-3-일)-N-(3,4,5-트리메톡시벤질)메탄아민] — lower, 4.08%
- COc1cc(CNCc2c[nH]c3ccc(OCc4ccccc4)cc23)cc(OC)c1OC [실시예 33, 1-(5-(벤질옥시)-1H-인돌-3-일)-N-(3,4,5-트리메톡시벤질)메탄아민] — lower, 34.9%
- C[C@H](NCc1c[nH]c2ccc(Cl)cc12)C(N)=O [실시예 3, (S)-2-((5-클로로-1H-인돌-3-일)메틸아미노)프로판아미드] — lower, 2.46%
- COc1cc(CNCc2c[nH]c3ccccc23)cc(OC)c1OC [실시예 29, N-((1H-인돌-3-일)메틸)-1-(3,4,5-트리메톡시페닐)메탄아민] — lower, 16.4%

Same assay, conditions: Nav1.7 versus Nav1.8, 10uM, from Table 2

In the case of CC(CCc1ccccc1)NCc1ccc(-c2cccc(C(F)(F)F)c2)o1 (stereo not shown) [실시예 12, 4-페닐-N-((5-(3-(트리플루오로메틸)페닐)퓨란-2-일)메틸)부탄-2-아민], the “selective inhibitory activity against Nav1.7” value (“selective inhibitory activity” for short) is reported as “선택적인 저해 활성”.
CC(CCc1ccccc1)NCc1ccc(N2CCOCC2)cc1 (stereo not shown) [실시예 14, N-(4-모폴리노벤질)-4-페닐부탄-2-아민] was tested, and the “selective inhibitory activity” value was “선택적인 저해 활성”.
For CC(CCc1ccccc1)NCc1ccc(Oc2ccc(C#N)cc2)cc1 (stereo not shown) [실시예 20, 4-(4-((4-페닐부탄-2-일)아미노메틸)페녹시)벤조나이트릴], the “selective inhibitory activity” value was “선택적인 저해 활성”.
COc1ccc(-c2ccc(CNC(C)CCc3ccccc3)o2)cc1Cl (stereo not shown) [실시예 18, N-((5-(3-클로로-4-메톡시페닐)퓨란-2-일)메틸)-4-페닐부탄-2-아민] was tested, and the “selective inhibitory activity” value was “선택적인 저해 활성”.
CC(CCc1ccccc1)NC(=O)c1ccc(-c2ccccc2)cc1 (stereo not shown) [실시예 25, N-(4-페닐부탄-2-일)-[1,1'-바이페닐]-4-카복스아미드] was tested, and the “selective inhibitory activity” value was “선택적인 저해 활성”.
In the case of C[C@H](NCc1c[nH]c2ccc(Br)cc12)C(N)=O [실시예 2, (S)-2-((5-브로모-1H-인돌-3-일)메틸아미노)프로판아미드], the “selective inhibitory activity” value is reported as “선택적인 저해 활성”.
CC(CCc1ccccc1)NCc1ccc(N2CCN(C)CC2)cc1 (stereo not shown) [실시예 13, N-(4-(4-메틸피페라진-1-일)벤질)-4-페닐부탄-2-아민] was tested, and the “selective inhibitory activity” value was “선택적인 저해 활성”.
In the case of COc1cc(CNC(=O)c2ccc3ccccc3n2)cc(OC)c1OC [실시예 41, N-(3,4,5-트리메톡시벤질)퀴놀린-2-카복스아미드], the “selective inhibitory activity” value is reported as “선택적인 저해 활성”.

The compounds below were run against T2, Nav1.8 (Homo sapiens, UniProt Q9Y5Y9) (assay: VIPR (voltage/ion probe reader) membrane potential assay, Nav1.8). Conditions: HEK293, HEK cells expressing hNav1.8, veratridine.
T2 construct: host or cells: HEK cells
Format: cell-based

T2 sequence (Q9Y5Y9 whole entry): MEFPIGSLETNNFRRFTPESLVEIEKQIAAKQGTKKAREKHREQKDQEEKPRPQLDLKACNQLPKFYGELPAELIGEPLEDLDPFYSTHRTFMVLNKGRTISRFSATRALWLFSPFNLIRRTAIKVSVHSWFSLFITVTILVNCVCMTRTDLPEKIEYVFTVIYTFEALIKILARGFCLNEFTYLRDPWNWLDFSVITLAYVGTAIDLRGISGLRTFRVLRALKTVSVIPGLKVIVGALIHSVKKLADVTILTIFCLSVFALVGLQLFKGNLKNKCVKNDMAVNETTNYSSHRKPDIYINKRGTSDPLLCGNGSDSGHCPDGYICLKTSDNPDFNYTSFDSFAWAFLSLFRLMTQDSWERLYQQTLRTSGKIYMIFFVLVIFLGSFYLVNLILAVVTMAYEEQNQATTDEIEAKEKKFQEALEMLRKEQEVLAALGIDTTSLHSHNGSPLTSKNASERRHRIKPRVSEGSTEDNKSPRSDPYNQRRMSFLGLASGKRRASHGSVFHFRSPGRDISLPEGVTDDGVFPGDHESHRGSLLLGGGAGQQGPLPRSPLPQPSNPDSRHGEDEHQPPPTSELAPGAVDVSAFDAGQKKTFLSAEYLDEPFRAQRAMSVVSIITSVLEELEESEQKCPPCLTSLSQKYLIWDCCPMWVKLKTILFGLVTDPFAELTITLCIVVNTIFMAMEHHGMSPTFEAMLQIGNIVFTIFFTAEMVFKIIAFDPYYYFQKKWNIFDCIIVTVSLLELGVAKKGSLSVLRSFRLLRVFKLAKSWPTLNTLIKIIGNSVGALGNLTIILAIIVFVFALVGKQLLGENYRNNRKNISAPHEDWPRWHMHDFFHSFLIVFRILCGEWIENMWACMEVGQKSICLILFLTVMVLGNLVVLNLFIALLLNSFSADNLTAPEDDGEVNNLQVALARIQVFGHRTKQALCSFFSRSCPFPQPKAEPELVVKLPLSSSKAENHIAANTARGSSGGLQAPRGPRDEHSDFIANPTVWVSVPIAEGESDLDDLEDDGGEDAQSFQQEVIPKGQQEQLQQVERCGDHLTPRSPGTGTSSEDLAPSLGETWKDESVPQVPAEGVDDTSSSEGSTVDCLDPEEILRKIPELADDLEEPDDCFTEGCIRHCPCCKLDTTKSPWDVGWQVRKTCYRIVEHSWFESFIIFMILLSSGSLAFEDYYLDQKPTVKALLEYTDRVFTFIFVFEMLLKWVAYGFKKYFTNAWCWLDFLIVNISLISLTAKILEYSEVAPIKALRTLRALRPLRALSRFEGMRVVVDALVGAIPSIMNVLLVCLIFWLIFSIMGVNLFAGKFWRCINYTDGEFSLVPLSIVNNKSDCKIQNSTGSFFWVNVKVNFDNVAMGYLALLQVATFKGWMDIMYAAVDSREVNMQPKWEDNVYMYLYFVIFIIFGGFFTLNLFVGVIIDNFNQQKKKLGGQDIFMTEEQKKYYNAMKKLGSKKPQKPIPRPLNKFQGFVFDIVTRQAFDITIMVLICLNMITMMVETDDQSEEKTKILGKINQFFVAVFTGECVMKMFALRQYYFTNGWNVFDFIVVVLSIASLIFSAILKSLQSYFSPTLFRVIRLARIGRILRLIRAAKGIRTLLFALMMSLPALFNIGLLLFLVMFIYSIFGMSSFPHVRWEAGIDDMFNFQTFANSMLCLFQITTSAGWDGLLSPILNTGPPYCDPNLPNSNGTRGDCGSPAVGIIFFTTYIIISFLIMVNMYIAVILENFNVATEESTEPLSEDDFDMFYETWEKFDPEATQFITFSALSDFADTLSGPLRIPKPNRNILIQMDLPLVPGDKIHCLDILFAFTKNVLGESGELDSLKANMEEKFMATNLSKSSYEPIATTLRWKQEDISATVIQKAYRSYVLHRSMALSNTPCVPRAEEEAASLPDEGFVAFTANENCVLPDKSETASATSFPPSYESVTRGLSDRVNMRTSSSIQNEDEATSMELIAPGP

Point of comparison: CC(CCc1ccccc1)NC(=O)c1cccc2ccccc12 (stereo not shown) [실시예 27, N-(4-페닐부탄-2-일)-1-나프타미드], inhibition at 10 µM 59.2%. Against it:
- NC(=O)[C@@H](NCc1ccc(Oc2ccc(Cl)cc2)cc1)c1ccccc1 [실시예 11, (S)-2-(4-(4-클로로페녹시)벤질아미노)-2-페닐아세트아미드] — lower, 19.5%
- NC(=O)[C@@H](NCc1ccc(Oc2ccc(F)cc2)cc1)c1ccccc1 [실시예 10, (S)-2-(4-(4-플루오로페녹시)벤질아미노)-2-페닐아세트아미드] — lower, 11.3%
- COc1cc(CNCc2c[nH]c3ccc(Br)cc23)cc(OC)c1OC [실시예 34, 1-(5-브로모-1H-인돌-3-일)-N-(3,4,5-트리메톡시벤질)메탄아민] — lower, 13.9%
- COc1cc(CNCc2c(-c3ccccc3)[nH]c3ccccc23)cc(OC)c1OC [실시예 30, 1-(2-페닐-1H-인돌-3-일)-N-(3,4,5-트리메톡시페닐)메탄아민] — lower, 3.3%
- NC(=O)[C@@H](NCc1cc(-c2ccc(Cl)cc2)on1)c1ccccc1 [실시예 9, (S)-2-((5-(4-클로로페닐)이속사졸-3-일)메틸아미노)-2-페닐아세트아미드] — lower, 1.77%
- CC(CCc1ccccc1)NCc1ccc(-c2cccc(C(F)(F)F)c2)o1 (stereo not shown) [실시예 12, 4-페닐-N-((5-(3-(트리플루오로메틸)페닐)퓨란-2-일)메틸)부탄-2-아민] — lower, 54.4%
- CC(CCc1ccccc1)NCc1ccc(-c2ccc(Cl)cc2)o1 (stereo not shown) [실시예 15, N-((5-(4-클로로페닐)퓨란-2-일)메틸)-4-페닐부탄-2-아민] — lower, 42.2%
- COc1ccc2[nH]cc(CN[C@@H](C)C(N)=O)c2c1 [실시예 5, (S)-2-((5-메톡시-1H-인돌-3-일)메틸아미노)프로판아미드] — lower, 18.3%
- CC(CCc1ccccc1)NCc1ccc(N2CCOCC2)cc1 (stereo not shown) [실시예 14, N-(4-모폴리노벤질)-4-페닐부탄-2-아민] — lower, 10.2%
- CC(CCc1ccccc1)NCc1ccc(Oc2ccc(C#N)cc2)cc1 (stereo not shown) [실시예 20, 4-(4-((4-페닐부탄-2-일)아미노메틸)페녹시)벤조나이트릴] — lower, 42.2%
- COc1ccc(-c2ccc(CNC(C)CCc3ccccc3)o2)cc1Cl (stereo not shown) [실시예 18, N-((5-(3-클로로-4-메톡시페닐)퓨란-2-일)메틸)-4-페닐부탄-2-아민] — lower, 6.75%
- CC(CCc1ccccc1)NC(=O)c1ccc(-c2ccccc2)cc1 (stereo not shown) [실시예 25, N-(4-페닐부탄-2-일)-[1,1'-바이페닐]-4-카복스아미드] — lower, 31.2%
- C[C@H](NCc1c[nH]c2ccc(Br)cc12)C(N)=O [실시예 2, (S)-2-((5-브로모-1H-인돌-3-일)메틸아미노)프로판아미드] — lower, 27.4%
- CC(CCc1ccccc1)NCc1ccc(N2CCN(C)CC2)cc1 (stereo not shown) [실시예 13, N-(4-(4-메틸피페라진-1-일)벤질)-4-페닐부탄-2-아민] — lower, 4.97%
- C[C@H](NCc1c[nH]c2ccc(OCc3ccccc3)cc12)C(N)=O [실시예 1, (S)-2-((5-(벤질옥시)-1H-인돌-3-일)메틸아미노)프로판아미드] — lower, 19.7%
- NC(=O)[C@@H](NCc1c[nH]c2ccc(Cl)cc12)c1ccccc1 [실시예 7, (S)-2-((5-클로로-1H-인돌-3-일)메틸아미노)-2-페닐아세트아미드] — lower, 3.45%
- COc1cc(CNC(=O)c2ccc3ccccc3n2)cc(OC)c1OC [실시예 41, N-(3,4,5-트리메톡시벤질)퀴놀린-2-카복스아미드] — lower, 19.3%
- COc1cc(CNC(=O)c2ccc(-c3ccccc3)cc2)cc(OC)c1OC [실시예 38, N-(3,4,5-트리메톡시벤질)-[1,1'-바이페닐]-4-카복스아미드] — lower, 18.3%
- COc1cc(CNCc2c[nH]c3c([N+](=O)[O-])cccc23)cc(OC)c1OC [실시예 37, 1-(7-니트로-1H-인돌-3-일)-N-(3,4,5-트리메톡시벤질)메탄아민] — lower, 8.81%
- COc1cc(CNCc2c[nH]c3ccc(OCc4ccccc4)cc23)cc(OC)c1OC [실시예 33, 1-(5-(벤질옥시)-1H-인돌-3-일)-N-(3,4,5-트리메톡시벤질)메탄아민] — lower, 5.87%
- C[C@H](NCc1c[nH]c2ccc(Cl)cc12)C(N)=O [실시예 3, (S)-2-((5-클로로-1H-인돌-3-일)메틸아미노)프로판아미드] — lower, 20.7%
